From patent US5492906A, “Derivatives of thieno-triazolo-diazepine and therapeutic compositions containing them” (Societe de Conseils de Recherches et d'Applications …, priority 1989, dated 1996)

How the values were obtained:
benzodiazepine receptors = assay: Inhibition of the binding to benzodiazepine receptors (rat brains); settings: rat brains incubated 1 h 30 at 4° C.; 3H-RO-15-4788 and 3H-RO-5-4864 as tracers; Table I; read-out: BDZ receptors (inhibition of the binding to benzodiazepine receptors)
From the text: 2) Inhibition of the binding to benzodiazepine receptors
The interest of the previous experimentation depends on the results obtained in this experimentation: as a compound of the invention has a benzodiazepine like structure, it is important to check whether the specific benzodiazepine activity would not appear at the dose where platelet agregation was inhibited.
Therefore, this experimentation has been conducted according to the method of MOHLER H. and RICHARD J. G. Agonist and antagonist benzodiazepine receptor intereaction in vitro, Nature, vol. 294, 763°-765, 1981.
This experimentation was conducted on rat brains incubated 1 h 30 at 4° C. using ^3 H-RO-15-4788 and ^3 H-RO-5-4864 (NEN) as tracers and […] and RO-5-4864 as reference antagonists.
The results in molecular concentration are reported in the table I, on the right hand column.

[1] = test system: platelet agregation induced by PAF; assay: Inhibition of platelet agregation induced by PAF; type: cell-based, New Zealand rabbits; settings: Oryctolagus cuniculus, New Zealand rabbit platelets, agregometer at 57° C., Table I
Experimental: 1) Inhibition of platelet agregation induced by PAF
This experimentation was conducted according to the method of R. KINLOUGH. RATHBONE, J. P. CAZENAVE, M. PACKHAM and F. MUSTARD, Lab. Invest. 48, 98, 1980. In this test, New Zealand rabbits were used (male New Zealand rabbits of an average weight of 5 kg).
The determinations are made on a chrono-log Coultronics agregometer, at […] coupled with a graphic recorder; the results of these determinations (in molecular concentration) are reported on the table I on the central column.

| Compound | IC50 (benzodiazepine receptors) [nM] | IC50 [1] [nM] |
| --- | --- | --- |
| Cc1nnc2n1-c1sc3c(c1C(c1ccccc1Cl)=NC2)CCN(C(=O)NC(C)C)C3 [Example 2, 6-(2-chlorophenyl)-9-isopropylcarbamoyl-7,8,9,10-tetra-hydro-1-methyl4H-pyrido[4',3':4,5]thieno[3,2-f]1,2,4-triazolo [4,3-a] 1,4-diazepine] | 66000 | 23.5 |
| Cc1nnc2n1-c1sc3c(c1C(c1ccccc1Cl)=NC2)CCN(C(=S)NC(C)(C)C)C3 [Example 4, 6-(2-chlorophenyl)-9-tertbutylthiocarbamoyl-7,8,9,10-tetrahydro-1-methyl4H-pyrido[4',3':4,5]theno [3,2-f]1,2,4-triazolo[4,3-a]1,4-diazepine] | 135 | 8.82 |
| COc1ccc(NC(=O)N2CCc3c(sc4c3C(c3ccccc3Cl)=NCc3nnc(C)n3-4)C2)cc1 [Example 6, 6-(2-chlorophenyl)-9-(4-methoxy)phenylcarbamoyl-7,8,9,10-tetrahydro-1-methyl 4H-pyrido[4',3':4,5]thieno[3,2-f]1,2,4-triazolo[4,3-a]1,4-diazepine] | 77000 | 127 |
| COc1cc(NC(=S)N2CCc3c(sc4c3C(c3ccccc3Cl)=NCc3nnc(C)n3-4)C2)cc(OC)c1OC [Example 9, 6-(2-chlorophenyl)-9-(3,4,5-trimethoxy)phenylthiocarbamoyl-7,8,9,10-tetrahydro-1-methyl 4H-pyrido[4',3':4,5]thieno [3,2-f]1,2,4-triazolo[4,3-a]1,4-diazepine] | 4500 | 38.7 |
| Cc1nnc2n1-c1sc3c(c1C(c1ccccc1Cl)=NC2)CCN(C(=S)Nc1ccc(C(C)(C)C)cc1)C3 [Example 11, 6-(2-chlorophenyl)-9-(4-tertbutyl)phenylthiocarbamoyl-4H-pyrido[4',3':4,5]thieno [3,2-f]1,2,4-triazolo[4,3-a]1,4-diazepine] | 1200 | 9.44 |
| Cc1nnc2n1-c1sc3c(c1C(c1ccccc1Cl)=NC2)CCN(C(=S)Nc1ccccc1C(F)(F)F)C3 [Example 12, 6-(2-chlorophenyl)-9-(2-trifluoromethyl)phenylthiocarbamoyl-7,8,9,10-tetrahydro-1-methyl 4H-pyrido[4',3':4,5]thieno[3,2-f]1,2,4-triazolo[4,3-a]1,4-diazepine] | 3500 | 171 |
| Cc1nnc2n1-c1sc3c(c1C(c1ccccc1Cl)=NC2)CCN(C(=S)Nc1cccc(C(F)(F)F)c1)C3 [Example 13, 6-(2-chlorophenyl)-9-(3-trifluoromethyl)phenylthiocarbamoyl-7,8,9,10-tetrahydro-1-methyl 4H-pyrido[4',3':4,5]thieno[3,2-f]1,2,4-triazolo[4,3-a]1,4-diazepine] | 6250 | 171 |
| Cc1nnc2n1-c1sc3c(c1C(c1ccccc1Cl)=NC2)CCN(C(=S)Nc1ccc(C(F)(F)F)cc1)C3 [Example 15, 6-(2-chlorophenyl)-9-(4-trifluoromethyl)phenylthiocarbamoyl-7,8,9,10-tetrahydro-1-methyl 4H-pyrido[4',3':4,5]thieno[3,2-f]1,2,4-triazolo[4,3-a]1,4-diazepine] | 1250 | 220 |
| Cc1nnc2n1-c1sc3c(c1C(c1ccccc1Cl)=NC2)CCN(C(=S)Nc1ccc(F)cc1)C3 [Example 16, 6-(2-chlorophenyl)-9-(4-fluoro)phenylthiocarbamoyl-7,8,9,10-tetrahydro-1-methyl 4H-pyrido[4',3':4,5]thieno[3,2-f]1,2,4-triazolo[4,3-a]1,4-diazepine] | 700 | 64 |
| Cc1nnc2n1-c1sc3c(c1C(c1ccccc1Cl)=NC2)CCN(C(=S)NC(C)Cc1ccccc1)C3 (stereo not drawn) [Example 19, 6-(2-chlorophenyl)-9-(α-methyl)phenethylthiocarbamoyl-7,8,9,10-tetrahydro-1-methyl 4H-pyrido[4',3':4,5]thieno[3,2-f]1,2,4-triazolo[4,3-a]1,4-diazepine] | 360 | 42.5 |
| Cc1nnc2n1-c1sc3c(c1C(c1ccccc1Cl)=NC2)CCN(C(=S)NCC(C)c1ccccc1)C3 (stereo not drawn) [Example 20, 6-(2-chlorophenyl)-9-(β-methyl)phenethylthiocarbamoyl-7,8,9,10-tetrahydro-1-methyl 4H-pyrido[4',3':4,5]thieno[3,2-f]1,2,4-triazolo[4,3-a]1,4-diazepine] | 720 | 6.17 |
| Cc1nnc2n1-c1sc3c(c1C(c1ccccc1Cl)=NC2)CCN(C(=S)Nc1ccc(S(C)(=O)=O)cc1)C3 [Example 21, 6-(2-chlorophenyl)-9-(4-methylsulfonyl)phenylthiocarbamoyl-7,8,9,10-tetrahydro-1-methyl 4H-pyrido[4',3':4,5]thieno[3,2-f]1,2,4-triazolo[4,3-a]1,4-diazepine] | 1100 | 24 |
| Cc1nnc2n1-c1sc3c(c1C(c1ccccc1Cl)=NC2)CCN(C(=O)NCc1ccccc1)C3 [Example 23, 6-(2-chlorophenyl)-9-benzylcarbamoyl-7,8,9,10-tetrahydro-1-methyl-4H-pyrido[4',3':4,5]thieno[3,2-f]1,2,4-triazolo[4,3-a]1,4-diazepine] | 1600 | 66.8 |
| Cc1nnc2n1-c1sc3c(c1C(c1ccccc1Cl)=NC2)CCN(C(=S)Nc1cnc2ccccc2c1)C3 [Example 25, 6-(2-chlorophenyl)-9-(3-quinolyl)thiocarbamoyl-7,8,9,10-tetrahydro-1-methyl-4H-pyrido[4',3':4,5]thieno[3,2-f]1,2,4-triazolo[4,3-a]1,4-diazepine] | 350 | 182 |
| Cc1nnc2n1-c1sc3c(c1C(c1ccccc1Cl)=NC2)CCN(C(=S)NC1CCCCC1)C3 [Example 26, 6-(2-chlorophenyl)-9-cyclohexylthiocarbamoyl-7,8,9,10-tetrahydro-1-methyl-4H-pyrido[4',3':4,5]thieno[3,2-f]1,2,4-triazolo[4,3-a]1,4-diazepine] | 4100 | 53.3 |
| Cc1nnc2n1-c1sc3c(c1C(c1ccccc1Cl)=NC2)CCN(C(=O)NC1CCCCC1)C3 [Example 27, 6-(2-chlorophenyl)-9-cyclohexylcarbamoyl-7,8,9,10-tetrahydro-1-methyl-4H-pyrido[4', 3':4,5]thieno[3,2-f]1,2,4-triazolo[4,3-a]1,4-diazepine] | 2000 | 45.2 |
| C=CCNC(=S)N1CCc2c(sc3c2C(c2ccccc2Cl)=NCc2nnc(C)n2-3)C1 [Example 28, 6-(2-chlorophenyl)-9-allylthiocarbamoyl-7,8,9,10-tetrahydro-1-methyl-4H-pyrido[4',3':4,5]thieno[3,2-f]1,2,4-triazolo[4,3-a]1,4-diazepine] | 140 | 9.05 |
| Cc1nnc2n1-c1sc3c(c1C(c1ccccc1Cl)=NC2)CCN(C(=O)Nc1ccc(F)cc1F)C3 [Example 29, 6-(2-chlorophenyl)-9-(2,4-difluoro)phenylcarbamoyl-7,8,9,10-tetrahydro-1-methyl-4H-pyrido [4',3':4,5]thieno[3,2-f]1,2,4-triazolo[4,3-a]1,4-diazepine] | 220 | 58.6 |
| Cc1nnc2n1-c1sc3c(c1C(c1ccccc1Cl)=NC2)CCN(C(=S)NS(=O)(=O)c1ccco1)C3 [Example 31, 6-(2-chlorophenyl)-9-(2-furylsulfonyl)thiocarbamoyl-7,8,9,10-tetrahydro-1-methyl-4H-pyrido[4',3':4,5]thieno[3,2-f]1,2,4-triazolo[4,3-a]1,4-diazepine] | 615 | 8.15 |
| Cc1nnc2n1-c1sc3c(c1C(c1ccccc1Cl)=NC2)CCN(C(=O)NS(=O)(=O)c1cccs1)C3 [Example 32, 6-(2-chlorophenyl)-9-(2-thienylsulfonyl)carbamoyl-7,8,9,10-tetrahydro-1-methyl-4H-pyrido[4',5':4,5]thieno[3,2-f]1,2,4-triazolo[4,3-a]1,4-diazepine] | 4330 | 66.6 |
| Cc1nnc2n1-c1sc3c(c1C(c1ccccc1Cl)=NC2)CCN(C(=O)NS(=O)(=O)c1cccnc1)C3 [Example 34, 6-(2-chlorophenyl)-9-(3-pyridylsulfonyl)carbamoyl-7,8,9,10-tetrahydro-1-methyl-4H-pyrido[4',3':4,5]thieno[3,2-f]1,2,4-triazolo[4,3-a]1,4-diazepine] | 40000 | 100 |
| Cc1nnc2n1-c1sc3c(c1C(c1ccccc1Cl)=NC2)CCN(C(=S)NS(=O)(=O)c1ccnc2ccccc12)C3 [Example 35, 6-(2-chlorophenyl)-9-(4-quinolylsulfonyl)thiocarbamoyl-7,8,9,10-tetrahydro-1-methyl-4H-pyrido[4',3':4,5]thieno [3,2-f]1,2,4-triazolo[4,3-a]1,4-diazepine] | 2200 | 34 |
| Cc1nnc2n1-c1sc3c(c1C(c1ccccc1Cl)=NC2)CCN(C(=O)NS(=O)(=O)N1CCOCC1)C3 [Example 36, 6-(2-chlorophenyl)-9-(4-morpholinylsulfonyl)carbamoyl-7,8,9,10-tetrahydro-1-methyl-4H-pyrido[4',3':4,5]thieno[3,2-f]1,2,4-triazolo[4,3-a]1,4-diazepine] | 7250 | 6.1 |
